Tested on: PDC 899932-113-R3-J6 complex spheroid viability
Assay: Anticancer human tumor 899932-113-R3-J6-PDC patient-derived melanoma cell line growth inhibition [RAS]
Details: for IC50: curve of first compound; for viability, T/C: stronger effect = lower value
Procedure, shortened: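 Multi-cell-type spheroids: tumor cells plus HUVEC endothelial cells and mesenchymal stem cells. RAS-pathway inhibitors were combined with targeted agents, each dosed in half-log steps down from clinical Cmax, or from 10 microM when Cmax was unknown.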
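Throughout, for viability, T/C: spheroids exposed to agents for seven days before readout; 100% = DMSO vehicle control wells.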

Question: How did the IC50 (second compound 0.000949 µM) turn out when `CC1(C)CCC(Nc2ncc(C(F)(F)F)c(-c3c[nH]c4c(P(C)(C)=O)c(C#N)ccc34)n2)CN1` (centres undefined) + CCn1c(-c2cc(N3CCN(C)CC3)cnc2C(C)OC)c2c3cc(ccc31)-c1csc(n1)CC(NC(=O)C1CC1C)C(=O)N1CCCC(N1)C(=O)OCC(C)(C)C2 was run?
Answer: Its IC50 is 3.34 nM.

Question: What about the IC50 (second compound 0.003 µM) of the same compound?
Answer: The IC50 was less than 0.949 nM.

Question: What about the IC50 (second compound 0.00949 µM) of the same compound?
Answer: The IC50 was less than 0.949 nM.

Question: And the IC50 (second compound 0.03 µM)?
Answer: The IC50 was less than 0.949 nM.

Question: And the IC50 (second compound 0.0949 µM)?
Answer: Its IC50 is less than 0.949 nM.

Question: What about the IC50 (second compound 0.3 µM) of the same compound?
Answer: The IC50 was less than 0.949 nM.

Question: And the viability, T/C (second compound 0.000949 µM, first compound 0.000949 µM)?
Answer: Its viability, T/C is 64.6%.

Question: What about the viability, T/C (second compound 0.000949 µM, first compound 0.003 µM) of the same compound?
Answer: Its viability, T/C is 51.2%.

Question: What about the viability, T/C (second compound 0.000949 µM, first compound 0.00949 µM) of the same compound?
Answer: Its viability, T/C is 37.5%.

Question: What about the viability, T/C (second compound 0.000949 µM, first compound 0.03 µM) of the same compound?
Answer: Its viability, T/C is 26.1%.

Question: And the viability, T/C (second compound 0.000949 µM, first compound 0.0949 µM)?
Answer: The viability, T/C was 15.4%.

Question: What about the viability, T/C (second compound 0.000949 µM, first compound 0.3 µM) of the same compound?
Answer: The viability, T/C was 9.12%.

Question: What about the viability, T/C (second compound 0.003 µM, first compound 0.000949 µM) of the same compound?
Answer: The viability, T/C was 35%.

Question: And the viability, T/C (second compound 0.003 µM, first compound 0.003 µM)?
Answer: The viability, T/C was 27.6%.

Question: What about the viability, T/C (second compound 0.003 µM, first compound 0.00949 µM) of the same compound?
Answer: The viability, T/C was 21.9%.

Question: And the viability, T/C (second compound 0.003 µM, first compound 0.03 µM)?
Answer: The viability, T/C was 14.6%.

Question: What about the viability, T/C (second compound 0.003 µM, first compound 0.0949 µM) of the same compound?
Answer: The viability, T/C was 13.2%.

Question: And the viability, T/C (second compound 0.003 µM, first compound 0.3 µM)?
Answer: Its viability, T/C is 7.92%.

Question: And the viability, T/C (second compound 0.00949 µM, first compound 0.000949 µM)?
Answer: Its viability, T/C is 3.56%.

Question: And the viability, T/C (second compound 0.00949 µM, first compound 0.003 µM)?
Answer: The viability, T/C was 4.08%.

Question: What about the viability, T/C (second compound 0.00949 µM, first compound 0.00949 µM) of the same compound?
Answer: Its viability, T/C is 4.01%.

Question: What about the viability, T/C (second compound 0.00949 µM, first compound 0.03 µM) of the same compound?
Answer: The viability, T/C was 4.17%.

Question: And the viability, T/C (second compound 0.00949 µM, first compound 0.0949 µM)?
Answer: Its viability, T/C is 5.08%.

Question: What about the viability, T/C (second compound 0.00949 µM, first compound 0.3 µM) of the same compound?
Answer: Its viability, T/C is 5.25%.

Question: What about the viability, T/C (second compound 0.03 µM, first compound 0.000949 µM) of the same compound?
Answer: The viability, T/C was 2.41%.

Question: And the viability, T/C (second compound 0.03 µM, first compound 0.003 µM)?
Answer: The viability, T/C was 2.78%.

Question: What about the viability, T/C (second compound 0.03 µM, first compound 0.00949 µM) of the same compound?
Answer: Its viability, T/C is 2.34%.

Question: And the viability, T/C (second compound 0.03 µM, first compound 0.03 µM)?
Answer: The viability, T/C was 2.28%.

Question: What about the viability, T/C (second compound 0.03 µM, first compound 0.0949 µM) of the same compound?
Answer: The viability, T/C was 2.45%.

Question: And the viability, T/C (second compound 0.03 µM, first compound 0.3 µM)?
Answer: Its viability, T/C is 2.64%.

Question: What about the viability, T/C (second compound 0.0949 µM, first compound 0.000949 µM) of the same compound?
Answer: Its viability, T/C is 2.17%.

Question: What about the viability, T/C (second compound 0.0949 µM, first compound 0.003 µM) of the same compound?
Answer: The viability, T/C was 2.21%.

Question: And the viability, T/C (second compound 0.0949 µM, first compound 0.00949 µM)?
Answer: The viability, T/C was 2.67%.

Question: What about the viability, T/C (second compound 0.0949 µM, first compound 0.03 µM) of the same compound?
Answer: The viability, T/C was 2.13%.

Question: What about the viability, T/C (second compound 0.0949 µM, first compound 0.0949 µM) of the same compound?
Answer: Its viability, T/C is 1.61%.

Question: And the viability, T/C (second compound 0.0949 µM, first compound 0.3 µM)?
Answer: The viability, T/C was 2.1%.

Question: And the viability, T/C (second compound 0.3 µM, first compound 0.000949 µM)?
Answer: Its viability, T/C is 2.15%.

Question: What about the viability, T/C (second compound 0.3 µM, first compound 0.003 µM) of the same compound?
Answer: Its viability, T/C is 1.93%.

Question: What about the viability, T/C (second compound 0.3 µM, first compound 0.00949 µM) of the same compound?
Answer: Its viability, T/C is 1.68%.

Question: What about the viability, T/C (second compound 0.3 µM, first compound 0.03 µM) of the same compound?
Answer: The viability, T/C was 1.68%.

Question: And the viability, T/C (second compound 0.3 µM, first compound 0.0949 µM)?
Answer: The viability, T/C was 1.86%.

Question: And the viability, T/C (second compound 0.3 µM, first compound 0.3 µM)?
Answer: The viability, T/C was 1.52%.

Question: With `C=CC(=O)Nc1cc(Nc2nccc(-c3cn(C)c4ccccc34)n2)c(OC)cc1N(C)CCN(C)C` + CCn1c(-c2cccnc2C(C)OC)c2c3cc(ccc31)N1CCOC(CC(NC(=O)C(C(C)C)N(C)C(=O)C3(F)CCN(C(=O)C#CC(C)(C)N(C)C)CC3)C(=O)N3CCCC(N3)C(=O)OCC(C)(C)C2)C1 as the compound, how does the IC50 (second compound 0.000949 µM) read?
Answer: The IC50 was greater than 1000 nM.

Question: What about the IC50 (second compound 0.003 µM) of the same compound?
Answer: The IC50 was greater than 1000 nM.

Question: What about the IC50 (second compound 0.00949 µM) of the same compound?
Answer: The IC50 was greater than 1000 nM.

Question: What about the IC50 (second compound 0.03 µM) of the same compound?
Answer: The IC50 was greater than 1000 nM.

Question: And the IC50 (second compound 0.0949 µM)?
Answer: The IC50 was greater than 1000 nM.

Question: And the IC50 (second compound 0.3 µM)?
Answer: The IC50 was greater than 1000 nM.

Question: And the viability, T/C (second compound 0.000949 µM, first compound 0.00316 µM)?
Answer: The viability, T/C was 113%.

Question: And the viability, T/C (second compound 0.000949 µM, first compound 0.01 µM)?
Answer: The viability, T/C was 98.3%.

Question: And the viability, T/C (second compound 0.000949 µM, first compound 0.0316 µM)?
Answer: Its viability, T/C is 101%.

Question: And the viability, T/C (second compound 0.000949 µM, first compound 0.1 µM)?
Answer: The viability, T/C was 106%.

Question: And the viability, T/C (second compound 0.000949 µM, first compound 0.316 µM)?
Answer: The viability, T/C was 115%.

Question: What about the viability, T/C (second compound 0.000949 µM, first compound 1 µM) of the same compound?
Answer: Its viability, T/C is 102%.

Question: What about the viability, T/C (second compound 0.003 µM, first compound 0.00316 µM) of the same compound?
Answer: The viability, T/C was 104%.

Question: And the viability, T/C (second compound 0.003 µM, first compound 0.01 µM)?
Answer: The viability, T/C was 116%.

Question: And the viability, T/C (second compound 0.003 µM, first compound 0.0316 µM)?
Answer: The viability, T/C was 107%.

Question: What about the viability, T/C (second compound 0.003 µM, first compound 0.1 µM) of the same compound?
Answer: Its viability, T/C is 104%.

Question: And the viability, T/C (second compound 0.003 µM, first compound 0.316 µM)?
Answer: The viability, T/C was 112%.

Question: What about the viability, T/C (second compound 0.003 µM, first compound 1 µM) of the same compound?
Answer: The viability, T/C was 99.5%.

Question: What about the viability, T/C (second compound 0.00949 µM, first compound 0.00316 µM) of the same compound?
Answer: Its viability, T/C is 108%.

Question: And the viability, T/C (second compound 0.00949 µM, first compound 0.01 µM)?
Answer: Its viability, T/C is 102%.

Question: And the viability, T/C (second compound 0.00949 µM, first compound 0.0316 µM)?
Answer: Its viability, T/C is 108%.

Question: What about the viability, T/C (second compound 0.00949 µM, first compound 0.1 µM) of the same compound?
Answer: The viability, T/C was 101%.

Question: And the viability, T/C (second compound 0.00949 µM, first compound 0.316 µM)?
Answer: Its viability, T/C is 110%.

Question: What about the viability, T/C (second compound 0.00949 µM, first compound 1 µM) of the same compound?
Answer: Its viability, T/C is 95.1%.

Question: And the viability, T/C (second compound 0.03 µM, first compound 0.00316 µM)?
Answer: The viability, T/C was 104%.

Question: And the viability, T/C (second compound 0.03 µM, first compound 0.01 µM)?
Answer: Its viability, T/C is 102%.

Question: What about the viability, T/C (second compound 0.03 µM, first compound 0.0316 µM) of the same compound?
Answer: The viability, T/C was 101%.

Question: And the viability, T/C (second compound 0.03 µM, first compound 0.1 µM)?
Answer: Its viability, T/C is 112%.

Question: What about the viability, T/C (second compound 0.03 µM, first compound 0.316 µM) of the same compound?
Answer: The viability, T/C was 112%.

Question: And the viability, T/C (second compound 0.03 µM, first compound 1 µM)?
Answer: The viability, T/C was 100%.

Question: What about the viability, T/C (second compound 0.0949 µM, first compound 0.00316 µM) of the same compound?
Answer: The viability, T/C was 102%.

Question: And the viability, T/C (second compound 0.0949 µM, first compound 0.01 µM)?
Answer: Its viability, T/C is 99.1%.

Question: What about the viability, T/C (second compound 0.0949 µM, first compound 0.0316 µM) of the same compound?
Answer: Its viability, T/C is 103%.

Question: What about the viability, T/C (second compound 0.0949 µM, first compound 0.1 µM) of the same compound?
Answer: Its viability, T/C is 105%.

Question: And the viability, T/C (second compound 0.0949 µM, first compound 0.316 µM)?
Answer: Its viability, T/C is 104%.

Question: And the viability, T/C (second compound 0.0949 µM, first compound 1 µM)?
Answer: The viability, T/C was 89.8%.

Question: And the viability, T/C (second compound 0.3 µM, first compound 0.00316 µM)?
Answer: Its viability, T/C is 96.5%.

Question: What about the viability, T/C (second compound 0.3 µM, first compound 0.01 µM) of the same compound?
Answer: Its viability, T/C is 85.5%.

Question: What about the viability, T/C (second compound 0.3 µM, first compound 0.0316 µM) of the same compound?
Answer: Its viability, T/C is 96%.

Question: And the viability, T/C (second compound 0.3 µM, first compound 0.1 µM)?
Answer: Its viability, T/C is 92.3%.

Question: And the viability, T/C (second compound 0.3 µM, first compound 0.316 µM)?
Answer: The viability, T/C was 90.9%.

Question: What about the viability, T/C (second compound 0.3 µM, first compound 1 µM) of the same compound?
Answer: Its viability, T/C is 85.8%.
